The values below come from ChEMBL document CHEMBL1909281, “FDA-approved drug labeling for the study of drug-induced liver injury” (Drug Discov Today, 2011).
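Note: severity score taken from the FDA LTKB benchmark dataset, subset of drugs classed as lower DILI concern.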

The subject of the first series is Hepatotoxicity.
Details: not given
Turning to `NC(=O)c1cnccn1` [PYRAZINAMIDE], the “LTKB_BD DILI severity score” value is reported as 3. Consider `Nc1nc(O)c2ncn(COC(CO)CO)c2n1` [GANCICLOVIR], for which the “LTKB_BD DILI severity score” value is given as 7. Regarding `C[C@@H]1C[C@H]2[C@@H]3CCC4=CC(=O)C=C[C@]4(C)[C@@]3(F)[C@@H](O)C[C@]2(C)[C@@]1(O)C(=O)CO` [DEXAMETHASONE], the “LTKB_BD DILI severity score” value worked out at 3. The same measure, in the same setting: with `COc1ccc2c(c1)c(CC(=O)O)c(C)n2C(=O)c1ccc(Cl)cc1` [INDOMETHACIN] the figure was 3; with `CCOC(=O)[C@H](CCc1ccccc1)N[C@@H](C)C(=O)N1CCC[C@H]1C(=O)O`, 4; with `CN(C)[C@@H]1C(O)=C(C(N)=O)C(=O)[C@@]2(O)C(O)=C3C(=O)c4c(O)cccc4[C@@](C)(O)[C@H]3[C@H](O)[C@@H]12` [OXYTETRACYCLINE], 2. Same read-out and setting: with `O=C1CC2(CCCC2)CC(=O)N1CCCCN1CCN(c2ncccn2)CC1` [BUSPIRONE] the figure was 3; with `CC(NC(C)(C)C)C(=O)c1cccc(Cl)c1` (stereo unspecified) [BUPROPION], 5.

As for `CC(=O)S[C@@H]1CC2=CC(=O)CC[C@]2(C)[C@H]2CC[C@@]3(C)[C@@H](CC[C@@]34CCC(=O)O4)[C@H]12` [SPIRONOLACTONE], the “LTKB_BD DILI severity score” value turned out to be 2.

Regarding `COC(=O)Nc1nc2ccc(C(=O)c3ccccc3)cc2[nH]1` [MEBENDAZOLE], the “LTKB_BD DILI severity score” value is given as 3. On the same count and under the same terms, with `Oc1ncnc2[nH]ncc12` [ALLOPURINOL] the figure was 3; with `O=P1(NCCCl)OCCCN1CCCl` (stereo unspecified) [IFOSFAMIDE], 4. Same read-out and setting: with `CCC1(c2ccccc2)C(=O)NC(=O)NC1=O` [PHENOBARBITAL] the figure was 3; with `CC(C)NCC(O)COc1ccc(COCCOC(C)C)cc1` (stereo unspecified) [BISOPROLOL], 3; with `CNCCC(Oc1ccc(C(F)(F)F)cc1)c1ccccc1` (stereo unspecified) [FLUOXETINE], 3. Same read-out and setting: with `O=c1n(CCCN2CCN(c3cccc(Cl)c3)CC2)nc2ccccn12` [TRAZODONE] the figure was 5; with `COc1cc2c(c(OC)c1OC)-c1ccc(OC)c(=O)cc1[C@@H](NC(C)=O)CC2` [COLCHICINE], 6. In the case of `O[C@@H]1CO[C@H]2[C@@H]1OC[C@@H]2O` [ISOSORBIDE], the “LTKB_BD DILI severity score” value is reported as 3. The same measure, in the same setting: with `CC(C)(O)c1ccccc1CC[C@@H](SCC1(CC(=O)O)CC1)c1cccc(/C=C/c2ccc3ccc(Cl)cc3n2)c1` [MONTELUKAST] the figure was 3; with `Nc1nc2c(ncn2COCCO)c(=O)[nH]1` [ACYCLOVIR], 5. Same read-out and setting: as for `CN(C)CCCN1c2ccccc2Sc2ccc(Cl)cc21` [CHLORPROMAZINE], the figure is 2; as for `C=C(CC)C(=O)c1ccc(OCC(=O)O)c(Cl)c1Cl` [ETHACRYNIC ACID], 5. Regarding `Fc1ccc([C@@H]2CCNC[C@H]2COc2ccc3c(c2)OCO3)cc1` [PAROXETINE], the “LTKB_BD DILI severity score” value turned out to be 8. The same measure, in the same setting: with `COc1ccc(C(CN(C)C)C2(O)CCCCC2)cc1` (stereo unspecified) [VENLAFAXINE] the figure was 7. In the case of `CC(C)NCC(O)COc1cccc2ccccc12` (stereo unspecified) [PROPRANOLOL], the “LTKB_BD DILI severity score” value is listed as 3.

As to `CN(C)CCCN1c2ccccc2CCc2ccccc21` [IMIPRAMINE], the “LTKB_BD DILI severity score” value is 3. For `NC(=O)c1ncn([C@@H]2O[C@H](CO)[C@@H](O)[C@H]2O)n1` [RIBAVIRIN], the “LTKB_BD DILI severity score” value is reported as 7. Consider `CC1=C(/C=C/C(C)=C/C=C/C(C)=C\C(=O)O)C(C)(C)CCC1` [ISOTRETINOIN], for which the “LTKB_BD DILI severity score” value was 2. The same measure, in the same setting: as for `CC1(C)S[C@@H]2[C@H](NC(=O)[C@H](N)c3ccc(O)cc3)C(=O)N2[C@H]1C(=O)O` [AMOXICILLIN], the figure is 3. As to `Clc1ccccc1C(c1ccccc1)(c1ccccc1)n1ccnc1` [CLOTRIMAZOLE], the “LTKB_BD DILI severity score” value was found to be 3. In the case of `CCN(CC)CCCC(C)Nc1ccnc2cc(Cl)ccc12` (stereo unspecified) [CHLOROQUINE], the “LTKB_BD DILI severity score” value is listed as 3. Same read-out and setting: with `O=NN(CCCl)C(=O)NCCCl` [CARMUSTINE] the figure was 3; with `O=C(CCCN1CCC(O)(c2ccc(Cl)cc2)CC1)c1ccc(F)cc1` [HALOPERIDOL], 5; with `C[C@H]1c2cccc(O)c2C(=O)C2=C(O)[C@]3(O)C(=O)C(C(N)=O)=C(O)[C@@H](N(C)C)[C@@H]3[C@@H](O)[C@@H]21.O` [DOXYCYCLINE], 3.

For the compound `CC(=O)CC(c1ccccc1)c1c(O)c2ccccc2oc1=O` (stereo unspecified) [WARFARIN], the “LTKB_BD DILI severity score” value was 5. Same read-out and setting: with `Cc1ccc(C)c(OCCCC(C)(C)C(=O)O)c1` [GEMFIBROZIL] the figure was 3; with `CN1CCN(CCCN2c3ccccc3Sc3ccc(C(F)(F)F)cc32)CC1` [TRIFLUOPERAZINE], 2; with `C[C@]12CC[C@@H]3c4ccc(O)cc4CC[C@H]3[C@@H]1CC[C@@H]2O` [ESTRADIOL], 2. On the same count and under the same terms, with `CC(C)OC(=O)C(C)(C)Oc1ccc(C(=O)c2ccc(Cl)cc2)cc1` [FENOFIBRATE] the figure was 3. In the case of `CC(C)(S)[C@@H](N)C(=O)O` [PENICILLAMINE], the “LTKB_BD DILI severity score” value came out at 3. Turning to `COC1=CC(=O)C[C@@H](C)[C@]12Oc1c(Cl)c(OC)cc(OC)c1C2=O` [GRISEOFULVIN], the “LTKB_BD DILI severity score” value is listed as 3. Still for that read-out and setting: with `CCCNC(=O)NS(=O)(=O)c1ccc(Cl)cc1` [CHLORPROPAMIDE] the figure was 2; with `CN1CCN(C2=Nc3cc(Cl)ccc3Nc3ccccc32)CC1` [CLOZAPINE], 2; with `CCC1=C(C)CN(C(=O)NCCc2ccc(S(=O)(=O)NC(=O)N[C@H]3CC[C@H](C)CC3)cc2)C1=O` [GLIMEPIRIDE], 7. For the compound `CCOC(=O)C1=C[C@@H](OC(CC)CC)[C@H](NC(C)=O)[C@@H](N)C1` [OSELTAMIVIR], the “LTKB_BD DILI severity score” value is recorded as 3.

On to `CN(C)CCOc1ccc(/C(=C(/CCCl)c2ccccc2)c2ccccc2)cc1` [TOREMIFENE], for which the “LTKB_BD DILI severity score” value turned out to be 3.

`CNC(=C[N+](=O)[O-])NCCSCc1ccc(CN(C)C)o1` [RANITIDINE]: the “LTKB_BD DILI severity score” value is given as 5.

As to `O=C([O-])c1cc(=O)c2c(OCC(O)COc3cccc4oc(C(=O)[O-])cc(=O)c34)cccc2o1.[Na+].[Na+]` [CROMOLYN SODIUM], the “LTKB_BD DILI severity score” value amounted to 3. Still for that read-out and setting: as for `CN(C)[C@@H]1C(O)=C(C(N)=O)C(=O)[C@@]2(O)C(O)=C3C(=O)c4c(O)cccc4[C@@](C)(O)[C@H]3C[C@@H]12` [TETRACYCLINE], the figure is 2; as for `CN(C)c1ccc(O)c2c1C[C@H]1C[C@H]3[C@H](N(C)C)C(O)=C(C(N)=O)C(=O)[C@@]3(O)C(O)=C1C2=O` [MINOCYCLINE], 2; as for `CC[C@H](C)C(=O)O[C@H]1C[C@H](O)C=C2C=C[C@H](C)[C@H](CC[C@@H](O)C[C@@H](O)CC(=O)O)[C@H]21` [PRAVASTATIN], 3. The same measure, in the same setting: as for `NC12CC3CC(CC(C3)C1)C2` [AMANTADINE], the figure is 3; as for `COC(=O)C1=C(C)NC(C)=C(C(=O)OC)C1c1ccccc1[N+](=O)[O-]` [NIFEDIPINE], 3; as for `CC(C(=O)O)c1ccc(-c2ccccc2)c(F)c1` (stereo unspecified) [FLURBIPROFEN], 3. Still for that read-out and setting: with `CN1C(C(=O)Nc2ccccn2)=C(O)c2ccccc2S1(=O)=O` [PIROXICAM] the figure was 3. In the case of `CCOC(=O)C(C)(C)Oc1ccc(Cl)cc1` [CLOFIBRATE], the “LTKB_BD DILI severity score” value was found to be 3. Still for that read-out and setting: as for `C[C@]12C=CC(=O)C=C1CC[C@@H]1[C@@H]2[C@@H](O)C[C@@]2(C)[C@H]1CC[C@]2(O)C(=O)CO` [PREDNISOLONE], the figure is 3; as for `O=C(c1ccccc1)c1ccc2n1CCC2C(=O)O` (stereo unspecified) [KETOROLAC], 3; as for `C=CC[C@@H]1/C=C(\C)C[C@H](C)C[C@H](OC)[C@H]2O[C@@](O)(C(=O)C(=O)N3CCCC[C@H]3C(=O)O[C@H](/C(C)=C/[C@@H]3CC[C@@H](O)[C@H](OC)C3)[C@H](C)[C@@H](O)CC1=O)[C@H](C)C[C@@H]2OC` [TACROLIMUS ANHYDROUS], 5.

Take `CCc1ccc(CCOc2ccc(CC3SC(=O)NC3=O)cc2)nc1` (stereo unspecified) [PIOGLITAZONE]: the “LTKB_BD DILI severity score” value is on record as 3.

For the compound `CN(C)c1nc(N(C)C)nc(N(C)C)n1` [ALTRETAMINE], the “LTKB_BD DILI severity score” value amounted to 2. With `CNC(=C[N+](=O)[O-])NCCSCc1csc(CN(C)C)n1` [NIZATIDINE], the “LTKB_BD DILI severity score” value is 5.

On to `C[C@H](CS)C(=O)N1CCC[C@H]1C(=O)O` [CAPTOPRIL], for which the “LTKB_BD DILI severity score” value is on record as 6.

Take `COCCc1ccc(OCC(O)CNC(C)C)cc1` (stereo unspecified) [METOPROLOL]: the “LTKB_BD DILI severity score” value turned out to be 5. Still for that read-out and setting: with `CC(C)Cc1ccc(C(C)C(=O)O)cc1` (stereo unspecified) [IBUPROFEN] the figure was 3; with CARBOPLATIN, 3.

The same series, now with this note: Liver.
`Cc1cccc(C)c1OCC(C)N` (stereo unspecified) [MEXILETINE]: the “LTKB_BD DILI severity score” value came out at 3. In the case of `Clc1cccc(Cl)c1N=C1NCCN1` [CLONIDINE], the “LTKB_BD DILI severity score” value is reported as 3. Same read-out and setting: with `CN/C(=N/CCSCc1nc[nH]c1C)NC#N` [CIMETIDINE] the figure was 2; with `COc1ccc2cc([C@H](C)C(=O)O)ccc2c1` [NAPROXEN], 3. Take `NC(N)=Nc1nc(CSCCC(N)=NS(N)(=O)=O)cs1` [FAMOTIDINE]: the “LTKB_BD DILI severity score” value turned out to be 3. Still for that read-out and setting: as for `O=P1(N(CCCl)CCCl)NCCCO1` (stereo unspecified) [CYCLOPHOSPHAMIDE ANHYDROUS], the figure is 5; as for `O=C1NC(=O)C(c2ccccc2)(c2ccccc2)N1` [PHENYTOIN], 3. The same measure, in the same setting: as for `CNCCCC12CCC(c3ccccc31)c1ccccc12` [MAPROTILINE], the figure is 5. On the same count and under the same terms, with `Cn1cnc([N+](=O)[O-])c1Sc1ncnc2nc[nH]c12` [AZATHIOPRINE] the figure was 3. Take `CNCCCN1c2ccccc2CCc2ccccc21` [DESIPRAMINE]: the “LTKB_BD DILI severity score” value was determined as 3.
